According to paper PMC8151276, “An Integrated Approach toward NanoBRET Tracers for Analysis of GPCR Ligand Engagement” (Molecules, 2021):
Each block holds one molecule with its values, some of them ahead of it.

Columns and labels:
[1] = target: T1, ADRB1 (Homo sapiens, UniProt P08588); assay: NanoBRET screen HiBiT-ADRB1 in HEK293; format: binding
T1 construct: purchased Promega (in-house HiBiT-GPCR construct library, NanoBRET)

[2] = target: T2, GNRHR (Homo sapiens, UniProt P30968); assay: NanoBRET screen HiBiT-GNRHR in HEK293; format: binding
T2 construct: purchased Promega (in-house HiBiT-GPCR construct library, NanoBRET)
T2 sequence (P30968 1-328): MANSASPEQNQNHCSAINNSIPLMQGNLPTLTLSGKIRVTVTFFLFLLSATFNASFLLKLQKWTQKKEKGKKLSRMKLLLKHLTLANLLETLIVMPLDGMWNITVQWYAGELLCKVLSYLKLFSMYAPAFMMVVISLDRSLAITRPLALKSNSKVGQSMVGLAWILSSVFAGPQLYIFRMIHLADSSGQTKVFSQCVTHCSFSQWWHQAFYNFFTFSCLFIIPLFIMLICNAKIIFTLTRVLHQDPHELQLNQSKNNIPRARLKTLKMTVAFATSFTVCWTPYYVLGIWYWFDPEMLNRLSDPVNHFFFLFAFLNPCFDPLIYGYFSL
Description: Each tracer candidate was screened across the entire library of HiBiT-GPCR constructs using NanoBRET as the detection modality. As depicted in Figure 4A, the specificity of interactions was evaluated through decrease in BRET due to competitive displacement of a bound tracer by excess parental compound. Each tracer was analyzed for binding to each HiBiT-GPCR fusion in the absence and in the presence of competing parental compound. Briefly, HEK293 cells were transfected with HiBiT-GPCR constructs diluted into promoterless DNA to reduce expression and maximize translocation to the cell surface. Each tracer candidate was then screened at concentrations of 1 μM and 0.1 μM across cells expressing these fusions. Cells were treated for 1.5 h with tracer either alone or in the presence of 20 μM competing parental compound (i.e., control). BRET was measured upon addition of purified LgBiT and subsequent complementation with HiBiT genetically fused to a GPCR. The specificity of interactions was assessed through a decrease in BRET signal due to competitive displacement of the bound tracer. To further gauge the robustness of these interactions, the fold response over the control (i.e., BRETtracer/BRETcontrol) was calculated. We chose a 1.5-fold response, which translates to ≥7-fold signal over noise as the minimal threshold required to score an interaction as positive. […]. Below we highlight the screening results obtained for our exemplary fluorescent tracers based on Clozapine, Amitriptyline and AZD1283.
HiBiT-GPCR DNA constructs were diluted in 10 mM Tris pH 8 to a final concentration of 0.01 μg/μL, arrayed in 96-well plates and stored at −20 °C. For transfection, HEK293 cells were suspended in Opti-MEM (without phenol red) supplemented with 2% fetal bovine serum (Seradigm) and 100 units/mL penicillin–streptomycin (Gibco) at a final concentration of 220,000 cells/mL and dispensed into white 96-well plates at 90 μL/well. Subsequent transfections and screens were carried using an Agilent Bravo Automated Liquid Handling Platform. First, the 96-well HiBiT DNA arrays were diluted 25-fold in Opti-MEM (without serum or phenol red) to a final concentration of 0.0004 μg/μL and 20 μL of the diluted DNAs were transferred into new 96-well plates. Next, promoterless carrier DNA (1 μg/μL) was diluted 25-fold (0.04 μg/μL) and then dispensed into the diluted arrays at 20 μL/well. Following brief mixing, Viafect transfection reagent (Promega) diluted 16-fold into Opti-MEM was dispensed into the plates at 40 μL/well. After mixing by pipetting, plates were incubated for 10 min on the pipetting station deck. The DNA-transfection reagent complexes were then added to plates containing cells. To facilitate the screen, 10 μL of DNA-transfection reagent complexes were added in duplicates to the top 4 and bottom 4 rows, resulting in two identical 48-well arrays per plate. Plates with transfected cells were incubated for 18–20 h at 37 °C/5% CO2. A screen of each tracer across the entire library using two different concentrations requires duplicate plates of transfected cells. Depending on the number of tracers being screened, transfections can be scaled up using the same ratios. The next day, for each tracer, four 20× screening solutions in tracer dilution buffer (Promega) were prepared: two duplicates at final concentration of 20 μM and two duplicates at a final concentration of 2 μM. A competing unmodified compound was added to one of each duplicate at a final concentration of 400 μM. The four resulting solutions were diluted 4-fold in Opti-MEM without serum or phenol red to generate 5× solutions (5 µM and 0.5 µM tracer +/− 100 μM competing compound). To screen the library, a BioTek MultiFlo FX liquid dispenser was used to dispense 22.5 µL of tracer solution to the top 4 rows and 22.5 µL tracer + competing compound solution to the 4 bottom rows. Plates were briefly mixed on an orbital shaker and incubated for 1.5 h at room temperature. […]

[3] = tracer at 1μM, listed as amitriptyline-b-2-NB590

T1 sequence (P08588 whole entry): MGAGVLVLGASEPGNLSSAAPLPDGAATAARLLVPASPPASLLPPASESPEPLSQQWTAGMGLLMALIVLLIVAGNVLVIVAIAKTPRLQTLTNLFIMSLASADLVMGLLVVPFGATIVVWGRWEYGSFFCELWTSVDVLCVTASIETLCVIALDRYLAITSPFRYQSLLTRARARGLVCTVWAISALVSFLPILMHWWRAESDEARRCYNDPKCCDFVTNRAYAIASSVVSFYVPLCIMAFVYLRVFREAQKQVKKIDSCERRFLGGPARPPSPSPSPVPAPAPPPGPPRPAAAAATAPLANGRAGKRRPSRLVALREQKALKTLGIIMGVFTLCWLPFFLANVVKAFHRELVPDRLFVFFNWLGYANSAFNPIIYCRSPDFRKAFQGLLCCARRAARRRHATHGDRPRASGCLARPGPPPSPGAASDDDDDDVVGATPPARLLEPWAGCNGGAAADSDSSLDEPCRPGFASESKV

NanoBRET Fold Response ([1]; ADRB1, 0.1μM): 1.05
NanoBRET Fold Response ([1]; ADRB1, 1μM): 1.09
NanoBRET Fold Response ([2]; GNRHR, 0.1μM): 1.09
NanoBRET Fold Response ([2]; GNRHR, 1μM): 1.08
Compound: CCOC(=O)c1cc(C#N)c(N2CCC(C(=O)NS(=O)(=O)Cc3ccccc3/C=C/C(=O)NCCNC(=O)CCc3ccc4n3[B-](F)(F)[N+]3=C(c5ccc[nH]5)C=CC3=C4)CC2)nc1C [AZD1283-1-NB590]

NanoBRET Fold Response ([1]; ADRB1, other tracers/Aminopotentidine (unmodified), 0.1μM): 1.01
NanoBRET Fold Response ([1]; ADRB1, other tracers/Aminopotentidine (unmodified), 1μM): 1.07
Compound: N#CN/C(=N\CCNC(=O)c1ccc(N)cc1)NCCCOc1cccc(CN2CCCCC2)c1 [Aminopotentidine (unmodified)]

NanoBRET Fold Response ([1]; ADRB1, tracer 0.1μM): 1.01
NanoBRET Fold Response ([1]; ADRB1, tracer 1μM): 0.99
NanoBRET Fold Response ([2]; GNRHR, tracer 0.1μM): 1.04
NanoBRET Fold Response ([2]; GNRHR, tracer 1μM): 0.98
Compound: N#CN=C(NCCCOc1cccc(CN2CCCCC2)c1)NCCNC(=O)CCOCCOCCOCCOCCNC(=O)CCc1ccc2n1[B-](F)(F)[N+]1=C(c3ccc[nH]3)C=CC1=C2 [Aminopotentidine-2-NB590]

Compound: CN(C)CCC=C1c2ccccc2CCc2ccc(C(=O)NCCNC(=O)CCOCCOCCOCCOCCNC(=O)CCc3ccc4n3[B-](F)(F)[N+]3=C(c5ccc[nH]5)C=CC3=C4)cc21 [Amitriptyline-a-2-NB590]
NanoBRET Fold Response ([1]; tracer at 0.1μM): 1.05
NanoBRET Fold Response ([1]; tracer at 1μM): 1.18
NanoBRET Fold Response ([2]; tracer at 0.1μM): 0.97
NanoBRET Fold Response ([2]; tracer at 1μM): 1.06

Compound: CN(C)CCC=C1c2ccccc2CCc2ccc(C(=O)NCCNC(=O)CCOCCOCCOCCOCCNC(=O)CCc3ccc4n3[B-](F)(F)[N+]3=C(c5ccc[nH]5)C=CC3=C4)cc21 [Amitriptyline-b-2-NB590]
NanoBRET Fold Response [1, 3]: 0.96
NanoBRET Fold Response ([2]; tracer at 0.1μM, listed as amitriptyline-b-2-NB590): 1.21
NanoBRET Fold Response [2, 3]: 0.91

Compound: CN(CCC=C1c2ccccc2CCc2ccccc21)C(=O)CCOCCOCCOCCOCCNC(=O)CCc1ccc2n1[B-](F)(F)[N+]1=C(c3ccc[nH]3)C=CC1=C2 [Amitriptyline-e-2-NB590]
NanoBRET Fold Response ([1]; tracer at 1μM): 0.95

NanoBRET Fold Response ([1]; 0.1μM tracer): 0.98
NanoBRET Fold Response ([1]; 1μM tracer): 0.96
NanoBRET Fold Response ([2]; 0.1μM tracer): 0.96
NanoBRET Fold Response ([2]; 1μM tracer): 1.06
Compound: COc1ccc2c(n1)c(CCNC(C)=O)cn2CCNC(=O)CCc1ccc2n1[B-](F)(F)[N+]1=C(c3ccc[nH]3)C=CC1=C2 [Azamelatonin-1-NB590]

NanoBRET Fold Response ([1]; 0.1μM tracer): 0.84
NanoBRET Fold Response ([1]; 1μM tracer): 0.96
NanoBRET Fold Response ([2]; 0.1μM tracer): 0.61
NanoBRET Fold Response ([2]; 1μM tracer): 0.98
Compound: COc1ccc2[nH]c(-c3ccc(CNC(=O)CCOCCOCCOCCOCCNC(=O)CCc4ccc5n4[B-](F)(F)[N+]4=C(c6ccc[nH]6)C=CC4=C5)cc3)c(CCNC(C)=O)c2n1 [AzomelatoninICO9-2-NB590]

NanoBRET Fold Response ([1]; ADRB1, 0.1μM tracer): 0.95
NanoBRET Fold Response ([1]; ADRB1, 1μM tracer): 0.94
NanoBRET Fold Response ([2]; GNRHR, 0.1μM tracer): 1.02
NanoBRET Fold Response ([2]; GNRHR, 1μM tracer): 1.24
Compound: O=C(CCOCCOCCOCCOCCNC(=O)CCc1ccc2n1[B-](F)(F)[N+]1=C(c3ccc[nH]3)C=CC1=C2)NCCCN1CCN(C2=Nc3cc(Cl)ccc3Nc3ccccc32)CC1 [Clozapine-a-2-NB590]

Compound: CN1CCN(C2=Nc3cc(Cl)ccc3Nc3ccc(CNC(=O)CCOCCOCCOCCOCCNC(=O)CCc4ccc5n4[B-](F)(F)[N+]4=C(c6ccc[nH]6)C=CC4=C5)cc32)CC1 [Clozapine-b-2-NB590]
NanoBRET Fold Response ([1]; ADRB1, 0.1μM tracer): 0.99
NanoBRET Fold Response ([1]; ADRB1, 1μM tracer): 1.02
NanoBRET Fold Response ([2]; GNRHR, 0.1μM tracer): 1.06
NanoBRET Fold Response ([2]; GNRHR, 1μM tracer): 1.02

Compound: CN1CCN(C2=Nc3cc(Cl)ccc3N(CC(=O)NCCOCCOCCOCCOCCNC(=O)CCc3ccc4n3[B-](F)(F)[N+]3=C(c5ccc[nH]5)C=CC3=C4)c3ccccc32)CC1 [Clozapine-c-2-NB590]
NanoBRET Fold Response ([1]; ADRB1, 0.1μM tracer): 1.02
NanoBRET Fold Response ([1]; ADRB1, 1μM tracer): 0.94
NanoBRET Fold Response ([2]; GNRHR, 0.1μM tracer): 1.02
NanoBRET Fold Response ([2]; GNRHR, 1μM tracer): 0.99

Compound: O=C(CCOCCOCCOCCOCCNC(=O)CCc1ccc2n1[B-](F)(F)[N+]1=C(c3ccc[nH]3)C=CC1=C2)NCCCN1CCN(C2=Nc3ccccc3Oc3ccc(Cl)cc32)CC1 [Loxapine-a-2-NB590]
NanoBRET Fold Response ([1]; ADRB1, tracer 0.1μM): 0.97
NanoBRET Fold Response ([1]; ADRB1, tracer 1μM): 0.97
NanoBRET Fold Response ([2]; GNRHR, tracer 0.1μM): 1.03
NanoBRET Fold Response ([2]; GNRHR, tracer 1μM): 0.89

Compound: COc1ccccc1N1CCN(CCCCN2C(=O)c3ccc(CNC(=O)CCOCCOCCOCCOCCNC(=O)CCc4ccc5n4[B-](F)(F)[N+]4=C(c6ccc[nH]6)C=CC4=C5)cc3C2=O)CC1 [NAN-190-2-NB590]
NanoBRET Fold Response ([2]; GNRHR, tracer 0.1μM): 0.98
NanoBRET Fold Response ([2]; GNRHR, tracer 1μM): 0.95

Compound: COc1ccccc1N1CCN(CCCCN2C(=O)c3ccc(CNC(=O)CCOCCNC(=O)c4ccc(CNC(=O)CCc5ccc6n5[B-](F)(F)[N+]5=C(c7ccc[nH]7)C=CC5=C6)cc4)cc3C2=O)CC1 [NAN-190-3-NB590]
NanoBRET Fold Response ([2]; GNRHR, tracer 0.1μM): 1.14
NanoBRET Fold Response ([2]; GNRHR, tracer 1μM): 0.97

Compound: O=C(CCc1ccc2n1[B-](F)(F)[N+]1=C(c3ccc[nH]3)C=CC1=C2)NCc1ccc(C(=O)NCCOCCC(=O)N[C@@H]2CC[C@@]3(O)[C@H]4Cc5ccc(O)c6c5[C@@]3(CCN4CC3CC3)[C@H]2O6)cc1 [Naltrexone-3-NB590]
NanoBRET Fold Response ([1]; ADRB1, tracer 0.1μM): 1.34
NanoBRET Fold Response ([1]; ADRB1, tracer 1μM): 0.83
NanoBRET Fold Response ([2]; GNRHR, tracer 0.1μM): 0.90
NanoBRET Fold Response ([2]; GNRHR, tracer 1μM): 0.99

Compound: Cc1cc2c(s1)Nc1ccccc1N=C2N1CCN(CCCNC(=O)CCOCCOCCOCCOCCNC(=O)CCc2ccc3n2[B-](F)(F)[N+]2=C(c4ccc[nH]4)C=CC2=C3)CC1 [Olanzapine-a-2-NB590]
NanoBRET Fold Response ([1]; ADRB1, tracer 0.1μM): 1.01
NanoBRET Fold Response ([1]; ADRB1, tracer 1μM): 0.97
NanoBRET Fold Response ([2]; GNRHR, tracer 0.1μM): 1.02
NanoBRET Fold Response ([2]; GNRHR, tracer 1μM): 1.04

Compound: O=C(CCc1ccc2n1[B-](F)(F)[N+]1=C(c3ccc[nH]3)C=CC1=C2)NCc1ccc(C(=O)NCCOCCOCCNCC(O)COc2cccc3ccccc23)cc1 (centres unmarked) [Propranolol-3-NB590]
NanoBRET Fold Response ([2]; GNRHR, 0.1μM): 1.12
NanoBRET Fold Response ([2]; GNRHR, 1μM): 1.03

Compound: O=C(CCc1ccc2n1[B-](F)(F)[N+]1=C(c3ccc[nH]3)C=CC1=C2)NCCOCCOCCNC(=O)OCCOCCN1CCN(C2=Nc3ccccc3Sc3ccccc32)CC1 [Quetiapine-a-2-NB590]
NanoBRET Fold Response ([1]; ADRB1, tracer 0.1μM): 1.00
NanoBRET Fold Response ([1]; ADRB1, tracer 1μM): 0.91
NanoBRET Fold Response ([2]; GNRHR, tracer 0.1μM): 0.97
NanoBRET Fold Response ([2]; GNRHR, tracer 1μM): 0.81

Compound: Cc1nc2n(c(=O)c1CCN1CCC(c3noc4cc(F)ccc34)CC1)CCCC2OC(=O)NCCOCCOCCOCCOCCNC(=O)CCc1ccc2n1[B-](F)(F)[N+]1=C(c3ccc[nH]3)C=CC1=C2 (centres unmarked) [Risperidone-2-NB590]
NanoBRET Fold Response ([1]; ADRB1, tracer 0.1μM): 0.98
NanoBRET Fold Response ([1]; ADRB1, tracer 1μM): 1.05
NanoBRET Fold Response ([2]; GNRHR, tracer 0.1μM): 0.88
NanoBRET Fold Response ([2]; GNRHR, tracer 1μM): 0.97

Compound: CC(C)N(CC[C@H](c1ccccc1)c1cc(CCNC(=O)CCOCCOCCOCCOCCNC(=O)CCc2ccc3n2[B-](F)(F)[N+]2=C(c4ccc[nH]4)C=CC2=C3)ccc1O)C(C)C [Tolterodine-2-NB590]
NanoBRET Fold Response ([1]; ADRB1, tracer 0.1μM): 1.09
NanoBRET Fold Response ([1]; ADRB1, tracer 1μM): 0.99
NanoBRET Fold Response ([2]; GNRHR, tracer 0.1μM): 1.23
NanoBRET Fold Response ([2]; GNRHR, tracer 1μM): 1.15
